These results are taken from ChEMBL document CHEMBL1138630, “Antioxidant activities of a new lignan and a neolignan from Saururus chinensis” (Bioorg Med Chem Lett, 2004).

Assay [1] deals with Cell line. The assay is described as follows: Effect of compound (0.1 uM) on macrophage-mediated oxidation of LDL was measured by MDA levels in the presence of Cu2+. It is filed as functional, Homo sapiens.
For assay [2], the system named is Cell line. Put plainly: Concentration required for inhibition of Cu+2-induced peroxidation in low-density lipoprotein of human. Type of assay: functional, cell-based.
Assay [3] concerns Cell line. The assay is described as follows: Antioxidant activity on copper-induced peroxidation in low-density lipoprotein at 10 uM; expressed as area of absorbance/mm. It is filed as functional, Homo sapiens.
Assay [4] deals with Cell line. The assay is described as follows: Antioxidant activity on copper-induced peroxidation in low-density lipoprotein at 20 uM; expressed as area of absorbance/mm. Type of assay: functional, Homo sapiens.
For assay [5], the system named is Cell line. Put plainly: Effect of compound (1 uM) on macrophage-mediated oxidation of LDL was measured by MDA levels in the presence of Cu2+. Type of assay: functional, Homo sapiens.

Consider `C/C=C/c1ccc(O[C@@H](C)[C@@H](O)c2ccc(O)c(OC)c2)c(OC)c1` [MACHILIN D], for which the Activity in the assay with Cell line [1] was 118.3 nmol/mg LDL; with Cell line [3], 5.81 AU/mm; in the assay with Cell line [4] it was 6.78 AU/mm. In addition, the IC50 (in general, the midpoint of a concentration-inhibition curve) in the assay on Cell line [2] was 3.8 µM.

On to `CC(C)(Sc1cc(C(C)(C)C)c(O)c(C(C)(C)C)c1)Sc1cc(C(C)(C)C)c(O)c(C(C)(C)C)c1` [PROBUCOL], for which the results for the Activity in the assay on Cell line [5], in the assay on Cell line [3] and with Cell line [4] were 412.6 nmol/mg LDL, 4.32 AU/mm and 6.7 AU/mm, respectively. Further, 2.8 µM corresponded to half-maximal inhibition in the assay with Cell line [2] (IC50).

Consider `COc1ccc(C[C@H](C)[C@@H](C)Cc2cc(OC)c(O)cc2O)cc1O`, for which the Activity came to 358.9 nmol/mg LDL in the assay with Cell line [1], 6.45 AU/mm with Cell line [3] and 7.66 AU/mm in the assay with Cell line [4]. Also, the IC50 with Cell line [2] was 3.3 µM.
